According to the NIST ThermoML archive (doi:10.1021/je030177j):

Test: mn = molality of the nth substance listed, in mol/kg
Settings: Liquid, Capillary tube (Ostwald / Ubbelohde) method

O=S(=O)([O-])[O-].[Li+].[Li+] [lithium sulfate] + O
viscosity [mPa·s]
Settings | 100 kPa | 10000 kPa | 20000 kPa | 30000 kPa
298.15 K, m1 = 0.1 | 0.939 | – | – | –
298.15 K, m1 = 0.28 | 1.037 | – | – | –
298.15 K, m1 = 0.56 | 1.195 | 1.195 | 1.195 | 1.195
298.15 K, m1 = 0.885 | 1.411 | – | – | –
298.25 K, m1 = 0.28 | – | 1.035 | 1.035 | 1.036
298.35 K, m1 = 0.1 | – | 0.936 | 0.9361 | 0.9363
298.45 K, m1 = 0.885 | – | 1.404 | 1.404 | 1.404
303.15 K, m1 = 0.1 | 0.862 | – | – | –
303.15 K, m1 = 0.28 | 0.951 | – | – | –
303.15 K, m1 = 0.56 | 1.096 | – | – | –
303.15 K, m1 = 0.885 | 1.294 | – | – | –
306.19 K, m1 = 0.56 | – | 1.013 | 1.016 | 1.018
307.35 K, m1 = 0.885 | – | 1.17 | 1.173 | 1.176
307.93 K, m1 = 0.28 | – | 0.8517 | 0.8546 | 0.857
308.52 K, m1 = 0.1 | – | 0.7647 | 0.7659 | 0.7682
311.24 K, m1 = 0.56 | – | 0.9141 | 0.9168 | 0.9192
312.27 K, m1 = 0.28 | – | 0.778 | 0.7812 | 0.784
313.15 K, m1 = 0.1 | 0.707 | – | – | –
313.15 K, m1 = 0.28 | 0.778 | – | – | –
313.15 K, m1 = 0.56 | 0.891 | – | – | –
313.15 K, m1 = 0.885 | 1.054 | – | – | –
313.67 K, m1 = 0.1 | – | 0.6899 | 0.6927 | 0.6955
314.12 K, m1 = 0.885 | – | 1.016 | 1.019 | 1.023
321.55 K, m1 = 0.28 | – | 0.6508 | 0.6539 | 0.6569
322.35 K, m1 = 0.56 | – | 0.7352 | 0.7388 | 0.7422
322.55 K, m1 = 0.885 | – | 0.8649 | 0.8691 | 0.8731
323.15 K, m1 = 0.1 | 0.578 | – | – | –
323.15 K, m1 = 0.28 | 0.63 | – | – | –
323.15 K, m1 = 0.56 | 0.722 | – | – | –
323.15 K, m1 = 0.885 | 0.853 | – | – | –
324.55 K, m1 = 0.1 | – | 0.566 | 0.5689 | 0.5716
329.44 K, m1 = 0.28 | – | 0.567 | 0.57 | 0.5731
330.24 K, m1 = 0.885 | – | 0.7558 | 0.7598 | 0.7639
331.27 K, m1 = 0.56 | – | 0.6319 | 0.6354 | 0.6372
331.86 K, m1 = 0.1 | – | 0.5013 | 0.5035 | 0.5061
333.15 K, m1 = 0.1 | 0.49 | – | – | –
333.15 K, m1 = 0.28 | 0.532 | – | – | –
333.15 K, m1 = 0.56 | 0.61 | – | – | –
333.15 K, m1 = 0.885 | 0.718 | – | – | –
338.71 K, m1 = 0.28 | – | 0.4914 | 0.4942 | 0.4979
339.74 K, m1 = 0.1 | – | 0.4463 | 0.4491 | 0.452
340.72 K, m1 = 0.885 | – | 0.6414 | 0.6452 | 0.6494
340.73 K, m1 = 0.56 | – | 0.5456 | 0.5484 | 0.5514
343.15 K, m1 = 0.1 | 0.429 | – | – | –
343.15 K, m1 = 0.28 | 0.462 | – | – | –
343.15 K, m1 = 0.56 | 0.53 | – | – | –
343.15 K, m1 = 0.885 | 0.624 | – | – | –
343.35 K, m1 = 0.28 | – | 0.4594 | 0.4623 | 0.4653
